Reference: PubChem BioAssay AID2060908 (Molecular Pharmacology Branch, DTP, NCI, 2025)

System: 186277-243-T-J2-PDC complex spheroids, viability
Assay: Anticancer human tumor 186277-243-T-J2-PDC patient-derived colon adenocarcinoma cell line growth inhibition [RAS]
Settings: for viability, T/C: stronger effect = lower value
Outline: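 Tumour cells grown as complex spheroids with HUVEC endothelial cells and mesenchymal stem cells, treated with RAS pathway inhibitor combinations. Each agent spans half-log steps from near clinical Cmax, or 10 microM where Cmax is unknown.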

[1] = curve of first compound, second compound 0.0316 µM
[2] = curve of first compound, second compound 0.1 µM
[3] = curve of first compound, second compound 0.316 µM
[4] = curve of first compound, second compound 1 µM
[5] = second compound 0.0316 µM, first compound 0.0316 µM
[6] = second compound 0.0316 µM, first compound 0.1 µM
[7] = second compound 0.0316 µM, first compound 0.316 µM
[8] = second compound 0.0316 µM, first compound 1 µM
[9] = second compound 0.0316 µM, first compound 3.16 µM
[10] = second compound 0.0316 µM, first compound 10 µM
[11] = second compound 0.1 µM, first compound 0.0316 µM
[12] = second compound 0.1 µM, first compound 0.1 µM
[13] = second compound 0.1 µM, first compound 0.316 µM
[14] = second compound 0.1 µM, first compound 1 µM
[15] = second compound 0.1 µM, first compound 3.16 µM
[16] = second compound 0.1 µM, first compound 10 µM
[17] = second compound 0.316 µM, first compound 0.0316 µM
[18] = second compound 0.316 µM, first compound 0.1 µM
[19] = second compound 0.316 µM, first compound 0.316 µM
[20] = second compound 0.316 µM, first compound 1 µM
[21] = second compound 0.316 µM, first compound 3.16 µM
[22] = second compound 0.316 µM, first compound 10 µM
[23] = second compound 1 µM, first compound 0.0316 µM
[24] = second compound 1 µM, first compound 0.1 µM
[25] = second compound 1 µM, first compound 0.316 µM
[26] = second compound 1 µM, first compound 1 µM
[27] = second compound 1 µM, first compound 3.16 µM
[28] = second compound 1 µM, first compound 10 µM
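Further: spheroids exposed to compounds for 7 days before viability read.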

For `CC(C)NCC(C(=O)N1CCN(c2ncnc3c2C(C)CC3O)CC1)c1ccc(Cl)cc1` (configuration not stated) + C#Cc1c(F)ccc2cc(O)cc(-c3ncc4c(N5CC6CCC(C5)N6)nc(OCC56CCCN5CC(F)C6)nc4c3F)c12, the IC50 [1] was 0.244 µM, the IC50 [2] was 0.117 µM and the IC50 [3] was < 0.0316 µM. For the same molecule, the IC50 [4] was < 0.0316 µM, the IC50 (curve of first compound, second compound 3.16 µM) was < 0.0316 µM and the IC50 (curve of first compound, second compound 10 µM) was < 0.0316 µM. It also gave a viability, T/C [5] of 74.3%, a viability, T/C [6] of 76.1% and a viability, T/C [7] of 40.8%. The viability, T/C [8] was 20.5%, the viability, T/C [9] was 10.6% and the viability, T/C [10] was 7.17%. The viability, T/C [11] was 55.4%, the viability, T/C [12] was 55.4% and the viability, T/C [13] was 29.3%. For the same molecule, the viability, T/C [14] was 12%, the viability, T/C [15] was 6.43% and the viability, T/C [16] was 4.17%. The viability, T/C [17] was 28.8%, the viability, T/C [18] was 26.3% and the viability, T/C [19] was 13.1%. For the same molecule, the viability, T/C [20] was 5.77%, the viability, T/C [21] was 3.93% and the viability, T/C [22] was 2.95%. The viability, T/C [23] was 17.7%, the viability, T/C [24] was 14.4% and the viability, T/C [25] was 10.1%. It also gave a viability, T/C [26] of 5.25%, a viability, T/C [27] of 4.08% and a viability, T/C [28] of 2.03%. The viability, T/C (second compound 3.16 µM, first compound 0.0316 µM) was 12.4%, the viability, T/C (second compound 3.16 µM, first compound 0.1 µM) was 11.2% and the viability, T/C (second compound 3.16 µM, first compound 0.316 µM) was 9.1%. For the same molecule, the viability, T/C (second compound 3.16 µM, first compound 1 µM) was 3.67%, the viability, T/C (second compound 3.16 µM, first compound 3.16 µM) was 2.83% and the viability, T/C (second compound 3.16 µM, first compound 10 µM) was 2.07%. It also gave a viability, T/C (second compound 10 µM, first compound 0.0316 µM) of 8.59%, a viability, T/C (second compound 10 µM, first compound 0.1 µM) of 9.81% and a viability, T/C (second compound 10 µM, first compound 0.316 µM) of 5.65%. It also gave a viability, T/C (second compound 10 µM, first compound 1 µM) of 3.64%, a viability, T/C (second compound 10 µM, first compound 3.16 µM) of 2.9% and a viability, T/C (second compound 10 µM, first compound 10 µM) of 0.94%.

With `CC1(C)CCC(Nc2ncc(C(F)(F)F)c(-c3c[nH]c4c(P(C)(C)=O)c(C#N)ccc34)n2)CN1` (configuration not stated) + CCn1c(-c2cc(N3CCN(C)CC3)cnc2C(C)OC)c2c3cc(ccc31)-c1csc(n1)CC(NC(=O)C1CC1C)C(=O)N1CCCC(N1)C(=O)OCC(C)(C)C2 the IC50 (curve of first compound, second compound 0.000949 µM) was 0.0953 µM, the IC50 (curve of first compound, second compound 0.003 µM) was 0.0443 µM and the IC50 (curve of first compound, second compound 0.00949 µM) was < 0.000949 µM. For the same molecule, the IC50 (curve of first compound, second compound 0.03 µM) was < 0.000949 µM, the IC50 (curve of first compound, second compound 0.0949 µM) was < 0.000949 µM and the IC50 (curve of first compound, second compound 0.3 µM) was < 0.000949 µM. For the same molecule, the viability, T/C (second compound 0.000949 µM, first compound 0.000949 µM) was 103%, the viability, T/C (second compound 0.000949 µM, first compound 0.003 µM) was 104% and the viability, T/C (second compound 0.000949 µM, first compound 0.00949 µM) was 88%. The viability, T/C (second compound 0.000949 µM, first compound 0.03 µM) was 68.5%, the viability, T/C (second compound 0.000949 µM, first compound 0.0949 µM) was 49.8% and the viability, T/C (second compound 0.000949 µM, first compound 0.3 µM) was 43.3%. The viability, T/C (second compound 0.003 µM, first compound 0.000949 µM) was 96.8%, the viability, T/C (second compound 0.003 µM, first compound 0.003 µM) was 80.2% and the viability, T/C (second compound 0.003 µM, first compound 0.00949 µM) was 82.1%. The viability, T/C (second compound 0.003 µM, first compound 0.03 µM) was 55.1%, the viability, T/C (second compound 0.003 µM, first compound 0.0949 µM) was 37.4% and the viability, T/C (second compound 0.003 µM, first compound 0.3 µM) was 31.4%. It also gave a viability, T/C (second compound 0.00949 µM, first compound 0.000949 µM) of 48.1%, a viability, T/C (second compound 0.00949 µM, first compound 0.003 µM) of 42.9% and a viability, T/C (second compound 0.00949 µM, first compound 0.00949 µM) of 31.9%. The viability, T/C (second compound 0.00949 µM, first compound 0.03 µM) was 22.6%, the viability, T/C (second compound 0.00949 µM, first compound 0.0949 µM) was 18.2% and the viability, T/C (second compound 0.00949 µM, first compound 0.3 µM) was 18.2%. For the same molecule, the viability, T/C (second compound 0.03 µM, first compound 0.000949 µM) was 14.1%, the viability, T/C (second compound 0.03 µM, first compound 0.003 µM) was 14% and the viability, T/C (second compound 0.03 µM, first compound 0.00949 µM) was 10.6%. The viability, T/C (second compound 0.03 µM, first compound 0.03 µM) was 9.74%, the viability, T/C (second compound 0.03 µM, first compound 0.0949 µM) was 10.6% and the viability, T/C (second compound 0.03 µM, first compound 0.3 µM) was 8.92%. For the same molecule, the viability, T/C (second compound 0.0949 µM, first compound 0.000949 µM) was 7.13%, the viability, T/C (second compound 0.0949 µM, first compound 0.003 µM) was 6.88% and the viability, T/C (second compound 0.0949 µM, first compound 0.00949 µM) was 5.95%. It also gave a viability, T/C (second compound 0.0949 µM, first compound 0.03 µM) of 5.82%, a viability, T/C (second compound 0.0949 µM, first compound 0.0949 µM) of 6.47% and a viability, T/C (second compound 0.0949 µM, first compound 0.3 µM) of 5.47%. It also gave a viability, T/C (second compound 0.3 µM, first compound 0.000949 µM) of 5.71%, a viability, T/C (second compound 0.3 µM, first compound 0.003 µM) of 5.48% and a viability, T/C (second compound 0.3 µM, first compound 0.00949 µM) of 4.65%. The viability, T/C (second compound 0.3 µM, first compound 0.03 µM) was 4.88%, the viability, T/C (second compound 0.3 µM, first compound 0.0949 µM) was 4.85% and the viability, T/C (second compound 0.3 µM, first compound 0.3 µM) was 4.54%.

Work on `CC(Nc1ccc2c(c1)OCCn1cc(N3C(=O)OCC3C(F)F)nc1-2)C(N)=O` (configuration not stated) + C=CC(=O)N1CCN(c2nc(OCC3CCCN3C)nc3c(F)c(-c4nc(N)cc(C)c4C(F)(F)F)c(Cl)cc23)C(C)C1 yielded an IC50 (curve of first compound, second compound 0.00316 µM) of 0.509 µM, an IC50 (curve of first compound, second compound 0.01 µM) of 0.46 µM and an IC50 [1] of 0.771 µM. For the same molecule, the IC50 [2] was 1.02 µM, the IC50 [3] was 0.453 µM and the IC50 [4] was 0.344 µM. For the same molecule, the viability, T/C (second compound 0.00316 µM, first compound 0.0316 µM) was 109%, the viability, T/C (second compound 0.00316 µM, first compound 0.1 µM) was 108% and the viability, T/C (second compound 0.00316 µM, first compound 0.316 µM) was 58.9%. The viability, T/C (second compound 0.00316 µM, first compound 1 µM) was 40.8%, the viability, T/C (second compound 0.00316 µM, first compound 3.16 µM) was 34.7% and the viability, T/C (second compound 0.00316 µM, first compound 10 µM) was 35%. The viability, T/C (second compound 0.01 µM, first compound 0.0316 µM) was 102%, the viability, T/C (second compound 0.01 µM, first compound 0.1 µM) was 109% and the viability, T/C (second compound 0.01 µM, first compound 0.316 µM) was 57.3%. It also gave a viability, T/C (second compound 0.01 µM, first compound 1 µM) of 42%, a viability, T/C (second compound 0.01 µM, first compound 3.16 µM) of 36.7% and a viability, T/C (second compound 0.01 µM, first compound 10 µM) of 25.3%. For the same molecule, the viability, T/C [5] was 90.2%, the viability, T/C [6] was 105% and the viability, T/C [7] was 70.3%. For the same molecule, the viability, T/C [8] was 47.1%, the viability, T/C [9] was 37.4% and the viability, T/C [10] was 33.5%. The viability, T/C [11] was 82.8%, the viability, T/C [12] was 99.9% and the viability, T/C [13] was 72.8%. For the same molecule, the viability, T/C [14] was 50.5%, the viability, T/C [15] was 42.8% and the viability, T/C [16] was 31.2%. For the same molecule, the viability, T/C [17] was 105%, the viability, T/C [18] was 103% and the viability, T/C [19] was 55.3%. For the same molecule, the viability, T/C [20] was 42.5%, the viability, T/C [21] was 36.1% and the viability, T/C [22] was 33.7%. For the same molecule, the viability, T/C [23] was 93.3%, the viability, T/C [24] was 98.5% and the viability, T/C [25] was 51%. For the same molecule, the viability, T/C [26] was 44.1%, the viability, T/C [27] was 41.5% and the viability, T/C [28] was 28.3%.

`CCn1c(-c2cc(N3CCN(C)CC3)cnc2C(C)OC)c2c3cc(ccc31)-c1csc(n1)CC(NC(=O)C1CC1C)C(=O)N1CCCC(N1)C(=O)OCC(C)(C)C2` (configuration not stated) was tested, and the viability, T/C (compound 0.000949 µM) was 105% [middle of 8 runs], the viability, T/C (compound 0.00949 µM) was 55.2% [middle of 8 runs] and the viability, T/C (compound 0.03 µM) was 15.2% [middle of 8 runs]. For the same molecule, the viability, T/C (compound 0.0949 µM) was 7.7% [middle of 7 runs], the viability, T/C (compound 0.3 µM) was 6.43% [middle of 8 runs] and the IC50 (compound alone, run of 05/20/2024) was 10.4 nM [middle of 8 runs].
